Measured values taken from PMC13578988, “No ancillary proteins are essential for the functional heterologous expression of the homomeric α6 nicotinic acetylcholine receptor from the brown castor tick Ixodes ricinus” (Current Research in Parasitology & Vector-borne Diseases, 2026).

Columns and labels:
[1] = system: T1, Iricα6B (homomeric α6 nicotinic acetylcholine receptor, splice variant B); assay: two-electrode voltage clamp in Xenopus laevis oocytes expressing Iricα6B (agonist dose-response); type: cell-based, Ixodes ricinus
T1 construct: full-length Iricα6B, 517 amino acids (exon 3b only), homopentamer

Asu-ACR-16 = settings: cited from earlier work

SMILES	EC50 [1]	EC50 (Asu-ACR-16)
O=[N+]([O-])NC1=NCCN1Cc1ccc(Cl)nc1 [imidacloprid]	11.6 nM	
CN/C(=N/CC1CCOC1)N[N+](=O)[O-] (centres unmarked) [dinotefuran]	0.42 nM	
CC(=O)OCC[N+](C)(C)C [ACh, acetylcholine]		5900 nM
CC(=O)OCC[N+](C)(C)C [acetylcholine]	2000 nM	
CN1CCC[C@H]1c1cccnc1 [nicotine]		4500 nM
